According to patent publication US5273991A, “Imidazole-containing compositions and methods of use thereof analogs of distamycin” (Research Corporation Technologies, Inc., priority 1992, dated 1993):

Key:
calf thymus DNA = assay: ethidium displacement assay, calf thymus DNA; type: binding; details: ± 0.02 × 10^5 M^-1, pH 7.4
Excerpt: (§1) The ethidium displacement assay is based on the fact that ethidium binding to DNA causes a large (approximately 25 fold) florescence enhancement as a result of the hydrophobic environment surrounding the ethidium molecule. Displacement of ethidium results in decreased fluorescence, and thus binding constants of drugs to DNA can be estimated and compared by measuring the loss of fluorescence as a function of added drug. The drug concentration which produces 50% inhibition of florescence is approximately inversely proportional to the apparent binding constant.
(§2) The relative DNA binding constants (Kapp) of distamycin and Compounds 6-10 to calf thymus DNA, T4 coliphage DNA, poly(dAdT) and poly(dGdC) were determined using the ethidium displacement assay (Morgan et al., 1979). The Kapp of ethidium bromide (Debart et al., 1989) is included for comparison. 25 μL of a 2A260 DNA solution was added to 2 mL of ethidium bromide buffer (250 μL of 1.3 mM ethidium bromidestock, 314.9 mg Tris-HCl, 60.8 mg Tris base and 930/mg of Na2 EDTA.2H2 O in 250 ml H2 O) pH 7.4 and the maximum fluorescence was measured (excitation wavelength=546 nm, emission wavelength=600 nm) at ambient temperature.
(§3) DNA solutions of 2A260 were prepared as follows: T4 coliphage DNA: 10 units of DNA were dissolved in 1 mL of 10 mM sodium phosphate (pH 7.1) and 0.25 mM EDTA buffer to give a 10A260 solution. 0.3 mL of the stock solution were diluted to 1.5 mL with 10 mM sodium phosphate (pH 7.1) and 0.25 mM EDTA buffer to give a 2A260 solution. Calf thymus DNA: 100 units of DNA were dissolved in 5 mL of 10 mM sodium phosphate (pH 7.1) and 0.25 mM EDTA buffer to give a 20A260 solution. 1.5 mL of the stock solution were diluted to 15 mL with 10 mM sodium phosphate (pH 7.1) and 0.25 mM EDTA buffer to give a 2A260 solution. Poly(dA-dT) and Poly(dG-dC) DNA: 100 units of DNA were dissolved in 10 mL of 10 mM sodium phosphate pH 7.1) and 0.25 mM EDTA buffer to give a 10A260 solution. 3 mL of the stock solution were diluted to 15 mL with 10 mM sodium phosphate (pH 7.1) and 0.25 mM EDTA buffer to give a 2A260 solution.
(§4) Aliquots of 10 mM stock drug solution (1 mg of drug to be tested was dissolved with 1 mole equivalent of 0.1M HCl, and then diluted with appropriate volume of distilled water to make a 10 mM solution) were then added to the fluorescing solution and the florescence measured after each addition until a 50% reduction of fluorescence occurred. If the 10 mM stock solution lowered the % fluorescence too quickly, the stock solution was further diluted to 1 mM prior to titration. The apparent binding constant was then calculated from this equation: KEtBr [EtBr]=Kapp [drug], where [drug]=the concentration of drug at a 50% reduction of fluorescence and KEtBr [1×10^7 M^-1 for calf thymus and coliphage T4 DNA^18, 9.5×10^6 M^-1 for poly(dA.dT)^30, and 9.9×10^6 M^-1 for poly(dG.dC)^30 ] and [EtBr] were known. The concentration of ethidium bromide was 1.3 μM. The Kapp values are shown in Table I. In a separate experiment, the Kapp of Compound 5 for calf thymus DNA and poly[dGdC] were determined to be 0.3×10^5 M^-1 and 2.6×10^5 M^-1, respectively. The error in these measurements is ±[…].

HL-60 (TB) = assay: NCI cytotoxicity screen (SRB); type: cell-based, human
T4 coliphage DNA = assay: ethidium displacement assay, T4 coliphage DNA; type: binding; details: ± 0.02 × 10^5 M^-1, pH 7.4
Excerpt: as §1
The apparent binding constants for T4 coliphage DNA are an indicator of the minor groove selectivity of the compounds of the present invention. The major groove of T4 coliphage DNA is blocked by α-glycosylation of the 5-hydroxymethylcytidine residues; therefore, the non-intercalating agents that bind to T4 coliphage DNA must interact in the minor groove [Lown (1982) Acc. Chem. Res., 15, 381].
as §2, §3, §4

[1] = tested on: DNAs [calf thymus, poly(dA dT) and poly(dG dC)]; assay: circular dichroism (CD) titration, DNAs together; type: binding; details: for drug-induced CD bands, wavelength: drugs alone do not exhibit any CD spectra
Method: The DNA binding properties of the present compounds were assessed by circular dichroism (CD) titration experiments. Methods for CD titration can be found, for example, in Zimmer et al. (1986) Prog. Biophys. Molec. Biol 47, 31. The conformation of DNA can be readily determined by CD experiments, and for B-DNA, characteristic positive and negative Cotton effects are observed at 260 and 245 nm, respectively.
The interaction of Compounds 6-10 to a number of DNAs [calf thymus, poly(dA dT) and poly(dG dC)] were analyzed by CD titration studies. All the CD titration experiments were performed using identical procedures, concentrations of DNA, and increments of drug:DNA ratios (or `r`, i.e. moles of drug to moles of DNA base pairs). Therefore, the differences observed in the CD spectra for the titration of each of the compounds to the polydeoxynucleotides may be directly compared to reflect their DNA binding properties.
All experiments were performed with a continuous flow of nitrogen purging the polarimeter. A 1 mm path length jacketed cell was used and all experiments were done at room temperature. Initially, DNA [0.02 μ moles (base pairs), 130 μL] was placed in the cell and the spectrum of the DNA alone was collected. Aliquots of drug were added and the spectra collected. The drug solutions were 1 mM and amounts of the drug added correspond to a drug to base pair ratio of 0.05, 0.10, 0.15, 0.20, 0.25, 0.30, 0.40, 0.50, 0.60, 0.80, 1.00. The scan parameters were set and standard for all experiments. The spectra were collected from 400 nm to 200 nm. The sensitivity was set at 1 mdeg and the scan speed was set at 20 nm per minute. Three scans were accumulated and automatically averaged by the computer. The λmax and ellipticity (mdeg) for each spectrum were collected from the raw scans and the final plots were smoothed by the noise reduction program on the computer. […] The induced CD band is presumably due to the uv absorption π to π^* transition of the drug in the drug:DNA complex. […] Therefore interaction of these drugs with DNA causes only minor conformational changes in the double helix.

CN(C)CCNC(=O)c1nc(NC(=O)c2nc(NC(=O)c3nc(NC(=O)CCCc4ccc(N(CCCl)CCCl)cc4)cn3C)cn2C)cn1C [Compound 10, N-(N',N'-dimethylaminoethyl)-1-methyl-4-{1-methyl-4-[4-(4,4-bis(2-chloroethyl)aminophenyl-1-butanamido)-1-methylimidazole-2-carboxamido]imidazole-2-carboxamido}imidazole-2-carboxamide]
Association constant Kapp (calf thymus DNA): 22000 M⁻¹
IC50 (HL-60 (TB); 48 h, Leukemia HL-60 (TB)): 7.89 µM
Association constant Kapp (T4 coliphage DNA): 19000 M⁻¹
binding preference from CD titration ([1]; induced band for poly(dG.dC) vs poly(dA.dT)): binds more strongly to GC rich sequences of DNA

CN(C)CCNC(=O)c1nc(NC(=O)c2nc(NC(=O)CCCc3ccc(N(CCCl)CCCl)cc3)cn2C)cn1C [Compound 9, N-(N',N'-dimethylaminoethyl)-1-methyl-4-{4-[4,4-bis(2-chloroethyl)aminophenyl-1-butanamido]-1-methylimidazole-2-carboxamido}imidazole-2-carboxamide]
Association constant Kapp (calf thymus DNA): 64000 M⁻¹
IC50 (HL-60 (TB); 48 h, Leukemia HL-60 (TB)): 43.8 µM
Association constant Kapp (T4 coliphage DNA): 75000 M⁻¹
CD titration result in words ([1]; three polydeoxyribonucleotides, r' up to 0.8): did not produce any notable changes in the CD spectra

CN(C)CCNC(=O)c1nc(NC(=O)c2nc(NC(=O)c3nc(NCc4ccc(N(CCCl)CCCl)cc4)cn3C)cn2C)cn1C [Compound 8, N-(N',N'-dimethylaminoethyl)-1-methyl-4-{1-methyl-4-[4-(4,4-bis-(2-chloroethyl)aminobenzylamino)-1-methylimidazole-2-carboxamido]imidazole-2-carboxamido}imidazole-2-carboxamide]
Association constant Kapp (calf thymus DNA): 473000 M⁻¹
Association constant Kapp (T4 coliphage DNA): 193000 M⁻¹

CN(C)CCNC(=O)c1nc(NC(=O)c2nc(NC(=O)c3nc(NC(=O)c4ccc(N(CCCl)CCCl)cc4)cn3C)cn2C)cn1C [Compound 7, N-(N',N'-dimethylaminoethyl)-1-methyl-4-{1-methyl-4-[4-(4,4-bis-(2-chloroethyl)aminobenzamido)-1-methylimidazole-2-carboxamido]imidazole-2-carboxamido}imidazole-2-carboxamide]
Association constant Kapp (calf thymus DNA): 591000 M⁻¹
IC50 (HL-60 (TB); 48 h, Leukemia HL-60 (TB)): 0.72 µM
Association constant Kapp (T4 coliphage DNA): 168000 M⁻¹
drug-induced CD bands, wavelength [1]: 290-340 nm

CN(C)CCNC(=O)c1nc(NC(=O)c2nc(NC(=O)c3ccc(N(CCCl)CCCl)cc3)cn2C)cn1C [Compound 6, N-(N',N'-dimethylaminoethyl)-1-methyl-4-{4-[4,4-bis(2-chloroethyl)aminobenzamido]-1-methylimidazole-2-carboxamido}imidazole-2-carboxamide]
Association constant Kapp (calf thymus DNA): 456000 M⁻¹
IC50 (HL-60 (TB); 48 h, Leukemia HL-60 (TB)): 7.84 µM
IC50 (HL-60 (TB); HL-60 (TB), subsequent test date): 7.93 µM
Association constant Kapp (T4 coliphage DNA): 236000 M⁻¹
drug-induced CD bands, wavelength [1]: 290-340 nm
